Measurements as given in patent publication US9504672B2, “Compositions and methods for treating or preventing pneumovirus infection and associated diseases” (MicroDose Therapeutx, Inc., priority 2012, dated 2016).
Where two headings read alike, the source gives them in different places.

Experiments:
[1] = Slurry of equal mixture of six phases in 75/25 acetone-water (PXRD); type: physicochemical; settings: 25° C., 12 days, listed as P-3
Protocol: An equal powder mixture of six known phases (P-2, P-3, P-4, P-6, P-7 and P-8), 50 mg each were stirred in 75/25 acetone-water solvent (50 mL) at 25° C. over 12 days.

[2] = Specific surface area (BET); type: physicochemical
[3] = 40° C./75% RH, 4 weeks
[4] = Competitive slurry stability study between P-2 and P-3 (PXRD quantitative phase analysis); type: physicochemical; settings: 50/50 acetonitrile/water, 25° C., over 10 days
[5] = Crystal (skeletal) density by nitrogen pycnometry; type: physicochemical
[6] = Particle size of micronized material (Sympatec HELOS & RODOS); type: physicochemical
[7] = human, in vivo
Protocol: The study consisted of 3 visits: Visit 1 (Screening), Visit 2 (Dosing) and Visit 3 (Follow up); subjects furloughed from the clinic between Visits 2 and 3.
Both active and matched placebo were administered via face mask inhalation from a proprietary delivery system (MicroDose inhaler).
Single doses were administered in the morning. TID doses will be administered at 6 hour intervals, with the 1st of the 3 doses administered in the morning.
Pharmacokinetic variables (Cmax, Tmax, AUC, T1/2) were evaluated based on blood samples drawn at Visit 2.

[8] = Storage stability of micronized API in amber glass bottles (DSC, PXRD); type: physicochemical; settings: 25° C./60% RH and 40° C./75% RH, through 12 months
Protocol: The micronized, P-3 dihydrate material was stored in 1.85 mL amber bottles with Teflon lined caps. The 25° C./60% RH and 40° C./75% RH simulated storage and worst-case storage conditions correspondingly.

[9] = in vivo
Source text: The purpose of the following studies was to assess the safety, tolerability, local and systemic pharmacokinetics of single and multiple doses of MDT-637 P3 in healthy volunteers and asthmatics.
(§1) In summary, the MicroDose Inhaler operation comprises the drug powder contained in a protective blister until delivery. The blister is pierced externally and then placed in contact with a piezoelectric vibrator within the MicroDose Inhaler. When the patient inhales, an airflow sensor automatically turns on the piezo which provides energy to deaggregate the particles of powder and aerosolizes them into the inhalation airstream, providing synchronized delivery. The MicroDose Inhaler was triggered by pressure drop and programmed to produce a series of brief aerosol bursts of predetermined duration within the range of 0.1 to 2.0 seconds, preferably 0.1 seconds, early during each inhalation cycle and for 16 consecutive breaths.

[10] = Critical water activity by DVS sorption/desorption isotherms; type: physicochemical; settings: 20° C.
Source text: The characteristic gravimetric loss of water is between 1-4.5% w/w.
The characteristic gravimetric loss of water for P-3 dihydrate is between 5.5-8.5% w/w. The profound difference of the DVS curves between the P-2 and P-3 forms can be utilized as a secondary technique for quantitative phase analysis of these forms.

[11] = for Total Imp/Deg: listed as P224-163-1; for number of impurity peaks: listed as P-3
Protocol: Forced degradation experiments consisted of placing solid samples of P-2 hydrate and P-3 dihydrate materials in sealed glass bottles at 120° C. for 7 days.

[12] = Bulk powder density and flow indices (volumetric); type: physicochemical
[13] = Stability of lactose formulation at 40° C./75% RH, sealed glass bottles, 39 weeks; type: physicochemical; settings: lactose formulation 6.3% w/w
Protocol: Formulation of the P-3 dihydrate form of the API with lactose (6.3% w/w) was placed on stability 40° C./75% RH in sealed glass bottles for 39 weeks. After samples removal, the lactose was removed by dissolution in purified water. The reference formulation was also subjected to the same lactose extraction procedure to eliminate the possibility for form conversion in water.

[14] = human, in vivo; remark: listed apart in the source
Source text: as §1, with “breaths. The studies were conducted as follows:” for “breaths.”
Study 3: A Double-Blind, Randomized, 3 Period Crossover, Single Ascending Dose Study to Assess the Safety and Tolerability of Inhaled MDT-637 P3 in Subjects with Intermittent or Mild-to-Moderate Persistent Asthma (Asthma Trial)
The primary objective of Study 3 was to assess the safety and tolerability of MDT-637 P3 when inhaled by subjects with Intermittent, or Mild-to-Moderate Persistent, Asthma. A secondary objective of Study 3 was to determine the rate and extent of systemic absorption of MDT-637 and trough nasal wash MDT-637 drug concentrations following dry powder inhalation dosing.
Each subject was dosed on 3 separate days during the study. Each subject received an initial dose of placebo (Period 1), followed by random allocation at Period 2 to a single dose of nasally inhaled MDT-637 P3 or double blind placebo. After an observation and furlough period, subjects returned for Period 3 to receive three doses of study drug (MDT-637 P3 or placebo) over a single day as listed below. The study consisted of 5 visits: Visit 1 (Screening), Visits 2, 3 and 4 (Dosing), and Visit 5 (Follow up); subjects were furloughed from the clinic for 6 up to 14 days between Visits 3 and 4 and 7-8 days between Visit 4 and 5. Subjects who met all of the inclusion criteria and none of the exclusion criteria (Table 19, FIG. 29) at Visit 1 were eligible to return for Visit 2 within 42 days of screening. Subjects were admitted to the study center twice, once for Visit 2 and again for Visit 4. Visit 5, was a safety follow up (outpatient) visit.
The doses of MDT-637 P3 were determined based on previous clinical experience in Study 1. Both placebo and active were administered as a dry powder for nasal inhalation via a face mask using a MicroDose Inhaler device. At Visit 2, all 10 patients were dosed with placebo Once Daily. At Visit 3, subjects were randomly allocated so that 8 subjects were dosed with MDT-637 P3 Once Daily 66 mcg and 2 subjects received double blind placebo. At Visit 4, subjects were again randomly allocated so that 8 subjects were dosed with MDT-637 TID 132 mcg and 2 subjects received double blind placebo.
Pharmacokinetic variables (Cmax, Tmax, AUC, T1/2) were evaluated based on blood samples drawn at Visit 4.

[15] = human, in vivo; remark: listed apart in the source
Source text: (§2) In summary, the MicroDose Inhaler operation comprises the drug powder contained in a protective blister until delivery. The blister is pierced externally and then placed in contact with a piezoelectric vibrator within the MicroDose Inhaler. When the patient inhales, an airflow sensor automatically turns on the piezo which provides energy to deaggregate the particles of powder and aerosolizes them into the inhalation airstream, providing synchronized delivery. The MicroDose Inhaler was triggered by pressure drop and programmed to produce a series of brief aerosol bursts of predetermined duration within the range of 0.1 to 2.0 seconds, preferably 0.1 seconds, early during each inhalation cycle and for 16 consecutive breaths. The studies were conducted as follows:
(§3) Subjects were enrolled in cohorts of 12 subjects. […] The study consisted of 3 visits: Visit 1 (Screening), Visit 2 (Dosing), Visit 3 (Follow up) and subjects remained at the study site for pharmacokinetic (PK) sampling, spirometry, and safety assessments. […] Day 1 was the first day of dosing and Day 10 was the final day of dosing, following which subjects remained at the study site for 24 hours following the last dose for PK sampling and spirometry. Visit 3 was a follow-up visit, 7 to 10 days after the last dose. Cohorts were dosed as follows:
(§4) The first doses for twice daily (BID) and three times daily (TID) were administered in the morning, starting at approximately 0700 hours on each day of dosing. BID doses were administered at 12 hour intervals and TID doses were administered at 6 hour intervals each dose day.
(§5) Pharmacokinetic endpoints (Cmax, Tmax, AUC, T1/2) and dose proportionality was assessed based on a limited number of plasma samples following the first dose on Day 1 and last dose on Day 10
(§6) Pharmacokinetic variables (Cmax, Tmax, AUC, T1/2) were evaluated based on blood samples drawn following first dose (Days 1-2) and last dose (Days 10-11).

clinical = settings: human, in vivo, 132 ug
Source text: as §2, §3, §4, §5, §6

Q: What does the source list for `Cc1nnnn1/N=C/c1ccc(O)c(C(c2ccc(O)cc2)c2cc(/C=N/n3nnnc3C)ccc2O)c1` [P-3 dihydrate, phenol, 2,2′-[(4-hydroxyphenyl)methylene]bis[4-[[(5-methyl-1H-tetrazol-1-yl)imino]methyl]]]?
A: form conversion / stability in six-phase slurry [1]: convert to P-2 hydrate; Specific surface area [2]: 11.0 m^2/g; Assay ([3]; open dish, listed as P-3): 96.7%; Rel Subs ([3]; open dish, listed as P-3): 0.67%; Water ([3]; open dish, listed as P-3): 5.9%; change of form / solid-state stability (DSC and PXRD) ([3]; open wide glass bottles): no change of form; chemical stability ([3]; open wide glass bottles): Acceptable chemical stability; form conversion in competitive slurry [4]: converts to P-2; Crystal (skeletal) density [5]: 1.61 g/mL; Characteristic medium volume particle size (micronized) [6]: 1.5 μm; changes in pulmonary function / pulmonary AEs [7]: No significant changes in pulmonary function or reports of pulmonary AEs; clinically significant changes in labs, vital signs, ECGs, physical exams [7]: No clinically significant changes; treatment emergent adverse event considered possibly related by PI [7]: Mild dizziness; nasal wash levels ([7]; 24 h): > MDT-637 P3's IC50 for RSV; change in form (DSC and PXRD) [8]: no change in form was observed; clinically significant changes in ECG, laboratory values, vital signs or physical exam [9]: no clinically significant changes; pulmonary adverse events or changes in pulmonary function [9]: no pulmonary adverse events or changes in pulmonary function were observed; serious adverse events [9]: no serious adverse events were observed; systemic exposure [9]: highly consistent and low systemic exposure; transition point (monohydrate) ([10]; 1% RH steps, first of two transition points): approximately 3 % RH; transition point (dihydrate) ([10]; 1% RH steps, second of two transition points): ~13 % RH; Characteristic relative humidity of dehydration (20° C.) [10]: 3-17%; Grand Total ([11]; 120C/7D): 99.8 Area %; Total Imp/Deg ([11]; 120C/7D): 6.49 Area %; Impurity/Degradation Product A ([11]; 7 days): 0.12 Area %; Impurity/Degradation Product B ([11]; 7 days): 3.60 Area %; Impurity/Degradation Product C ([11]; 7 days): 0.17 Area %; Impurity/Degradation Product D ([11]; 7 days): 0.48 Area %; Impurity/Degradation Product E ([11]; 7 days): 0.28 Area %; Impurity/Degradation Product F ([11]; 7 days): 0.08 Area %; Impurity/Degradation Product G ([11]; 7 days): 0.05 Area %; Impurity/Degradation Product H ([11]; 7 days): 0.43 Area %; Impurity/Degradation Product I ([11]; 7 days): 0.17 Area %; Impurity/Degradation Product K ([11]; 7 days): 0.13 Area %; Impurity/Degradation Product L ([11]; 7 days): 0.06 Area %; Impurity/Degradation Product M ([11]; 7 days): 0.09 Area %; Impurity/Degradation Product N ([11]; 7 days): 0.07 Area %; Impurity/Degradation Product O ([11]; 7 days): 0.37 Area %; Impurity/Degradation Product P ([11]; 7 days): 0.36 Area %; Impurity/Degradation Product Q ([11]; 7 days): 0.05 Area %; Grand Total ([11]; CTRL): 99.9 Area %; Total Imp/Deg ([11]; CTRL): 1.16 Area %; number of impurity peaks ([11]; control): 6 peaks; number of impurity peaks ([11]; stressed sample, 120° C. for 7 days): 16 peaks; Carr index [12]: 27.5%; Hausner ratio [12]: 1.38; Poured bulk powder density [12]: 0.22 g/mL; Tapped bulk powder density [12]: 0.30 g/mL; change of crystal form in formulation with lactose [13]: stable against solid-state conversion; clinically significant changes in labs, vital signs, ECGs, physical exams [14]: No clinically significant changes; clinically significant changes in pulmonary function / pulmonary AEs [14]: No clinically significant changes in pulmonary function or reports of pulmonary AEs; pharmacokinetics, asthmatic vs healthy population [14]: comparable between the healthy and asthmatic population; subjects reporting adverse events ([14]; 3 separate dosing days): 2/10; subjects reporting no adverse events ([14]; 3 separate dosing days): 8/10; CVs of PK exposure [15]: 15-30%; clinically significant changes in labs, vital signs, ECGs, physical exams [15]: No clinically significant changes; TEAEs considered related to study treatment ([15]; 10 days): 5 TEAEs; subjects reporting TEAEs ([15]; 10 days): 13 subjects; subjects reporting no TEAEs ([15]; 10 days): 25 subjects; total TEAEs overall ([15]; 10 days): 20 TEAEs; AUC(0-t) (clinical): 1.16 ng·h/mL
